tested on: B16F1 cells; assay: Screening of tranexamic acid-peptides: intracellular melanin production in α-MSH-treated melanocytes; format: cell-based, mouse; details: α-MSH 20 μg/mL, 3 days, intracellular melanin at 490 nm; Control (No Treatment) = 100; test concentration not stated (1-250 μg/mL tested)
Description: B16F1 cells, which are mouse melanocytes, were cultured in Dulbecco's modified Eagle's media (DMEM, Sigma), to which 10% fetal bovine serum (FBS, Sigma) was added, under 37° C. CO2 conditions. The cells were cultured in a 24-well plate at a concentration of 1×10^5 cells/well, and the attachment of cells was confirmed. Then, the control group was not treated with anything but only a solvent was added thereto, whereas a-MSH (20 μg/mL) was added to the positive control group. The remaining dishes were treated with α-MSH (20 μg/mL), 40 kinds of tranexamic acid-peptides, and the control group with Arbutin and AA2G, to a concentration of 1 μg/mL, 10 μg/mL, 100 μg/mL, and 250 μg/mL, respectively. Test materials were added to each dish and cultured for 3 days. After 3 days, the culture was removed by centrifugation, and the cells were lysed and intracellular melanin was collected, and observed at 490 nm to measure the amount of intracellular melanin production.
40 kinds of tranexamic acid-peptides were treated according to concentration, and their inhibitory effect against melanin production was measured.

Row | Molecule | α-MSH Inhibitory Ability (%)
1 | NC[C@H]1CC[C@H](C(=O)O)CC1 [TXA, tranexamic acid] | 45%
2 | Tranexamil-AA [Dipeptide-26 AA] | 92%
3 | Tranexamil-AH [Dipeptide-11 AH] | 82%
4 | Tranexamil-AR [Dipeptide-31 AR] | 93%
5 | Tranexamil-AS [Dipeptide-1 AS] | 98%
6 | Tranexamil-AT [Dipeptide-2 AT] | 88%
7 | Tranexamil-CC [Dipeptide-12 CC] | 83%
8 | Tranexamil-CG [Dipeptide-39 CG] | 92%
9 | Tranexamil-EC [Dipeptide-20 EC] | 61%
10 | Tranexamil-ES [Dipeptide-5 ES] | 80%
11 | Tranexamil-ET [Dipeptide-38 ET] | 52%
12 | Tranexamil-GH [Dipeptide-9 GH] | 70%
13 | Tranexamil-GK [Dipeptide-29 GK] | 96%
14 | Tranexamil-GP [Dipeptide-4 GP] | 80%
15 | Tranexamil-HA [Dipeptide-28 HA] | 87%
16 | Tranexamil-KD [Dipeptide-16 KD] | 81%
17 | Tranexamil-KK [Dipeptide-6 KK] | 83%
18 | Tranexamil-KV [Dipeptide-30 KV] | 83%
19 | Tranexamil-MA [Dipeptide-10 MA] | 56%

Row | Molecule | α-MSH Inhibitory Ability (%)
20 | Tranexamil-MY [Dipeptide-8 MY] | 78%
21 | Tranexamil-NA [Dipeptide-17 NA] | 79%
22 | Tranexamil-NT [Dipeptide-40 NT] | 84%
23 | Tranexamil-PF [Dipeptide-22 PF] | 89%
24 | Tranexamil-PP [Dipeptide-35 PP] | 85%
25 | Tranexamil-PQ [Dipeptide-33 PQ] | 71%
26 | Tranexamil-QG [Dipeptide-34 QG] | 85%
27 | Tranexamil-RP [Dipeptide-32 RP] | 87%
28 | Tranexamil-SA [Dipeptide-13 SA] | 81%
29 | Tranexamil-SS [Dipeptide-19 SS] | 80%
30 | Tranexamil-SV [Dipeptide-37 SV] | 64%
31 | Tranexamil-TA [Dipeptide-21 TA] | 76%
32 | Tranexamil-TS [Dipeptide-18 TS] | 75%
33 | Tranexamil-VP [Dipeptide-25 VP] | 69%
34 | Tranexamil-VR [Dipeptide-36 VR] | 70%
35 | Tranexamil-VV [Dipeptide-24 VV] | 72%
36 | Tranexamil-WA [Dipeptide-14 WA] | 65%
37 | Tranexamil-WE [Dipeptide-15 WE] | 78%

tested on: mouse melanocytes; assay: Whitening effect: melanin production in α-MSH-treated melanocytes by visual inspection; format: cell-based; details: images of melanocytes, similar concentrations, 3 days
Description: According to a preferred embodiment of the present invention, the peptides of the present invention […] the melanin production in a concentration-dependent manner. […] Additionally, when cells were treated with 4 kinds of the tranexamic acid-peptides; the peptides, to which tranexamic acid was not bound; Arbutin; and AA2G at various concentrations (1μ, 10μ, 100μ, and 250μ), cultured for 3 days, and the absorbance of the cultures were measured at 490 nm and analyzed.
Tranexamic acid-peptides were treated according to concentration and their inhibitory effect against melanin production was measured. The mouse melanocytes were cultured in Dulbecco's modified Eagle's media (DMEM, Sigma) containing 10% fetal bovine serum ([…], Sigma) under 37° C. CO2 conditions.
The cells were cultured in a 24-well plate at a concentration of 1×10^5 cells/well, and the attachment of cells was confirmed. Then, the control group was not treated with anything but only a solvent was added thereto, whereas a-MSH ([…]) was added to the positive control group. The remaining dishes were treated with α-MSH (20 μg/mL), 4 kinds of tranexamic acid-peptides, and the control group with Arbutin and AA2G, to a concentration of 1 μg/mL, 10 μg/mL, 100 μg/mL, and 250μ), respectively. Test materials were added to each dish and cultured for 3 days. […]

Row | Molecule | cell number compared to α-MSH treatment
38 | OC[C@H]1O[C@@H](Oc2ccc(O)cc2)[C@H](O)[C@@H](O)[C@@H]1O [Arbutin] | rapidly decreased

tested on: skin pigmentation (melanin index); assay: Clinical test of creams: skin pigmentation by Mexameter; format: in vivo, human; details: 54 women, creams with 1% tranexamic acid-dipeptide or tranexamic acid, 2 times a day
Text: In particular, a cream containing tranexamic acid was used as the positive control group and the standard base cream was used as the negative control group.
The face of each subject was divided into two parts vertically and the two kinds of creams prepared above were applied to each face. The subjects were required to continuously use the creams in the morning and evening, 2 times a day for 8 weeks after washing the face.
For the objective evaluation of changes in skin pigmentation before and after the use of the creams, the changes in pigmentation were measured using the Mexameter (CK, Germany) before the use of the creams, 2 weeks, 4 weeks, 6 weeks, and 8 weeks after the use of the creams.
As a result of the above experiment, the tranexamic acid-dipeptide with a greater effect between the two kinds of tranexamic acid-dipeptides, was selected and, as an attempt to reduce the content in the cream, a cream containing 0.5% tranexamic acid-dipeptide was prepared. Ten women subjects were collected and the 8-week clinical experiment was performed in the same manner as described above.

Row | Molecule | decrease of the melanin index after 8 weeks
39 | NC[C@H]1CC[C@H](C(=O)O)CC1 [TXA, tranexamic acid] | 11.4%

same assay, conditions: ten women, cream with 0.5% tranexamic acid-dipeptide or tranexamic acid, 2 times a day

Row | Molecule | decrease of the melanin index after 8 weeks
40 | NC[C@H]1CC[C@H](C(=O)O)CC1 [TXA, tranexamic acid] | 10.2%

— US10532018B2, “Method of whitening skin using tranexamic acid-peptide having skin whitening activity” (ANPEP INC., priority 2016, dated 2020)
